In patent US20180298010A1, “PRMT5 INHIBITORS AND USES THEREOF” (Epizyme, Inc., priority 2012, published 2018) one finds EC50 data, which are given here for one compound.

Each structure is given as a SMILES string.

In assay [1] the test system is Z-138 cells. Briefly: Z-138 Proliferation Assay (Cell Titer Glo, 5 days). Format: cell-based. The settings on record: Homo sapiens, 120 h. An excerpt: Z-138 Proliferation Assay
Z-138 suspension cells were purchased from ATCC (American Type Culture Collection, Manassas, Va.). RPMI/Glutamax medium, penicillin-streptomycin, heat inactivated fetal bovine serum were purchased from Life Technologies, Grand Island, N.Y., USA. V-bottom polypropylene 384-well plates were purchased from Greiner Bio-One, Monroe, N.C., USA. Cell culture 384-well white opaque plates were purchased from Perkin Elmer, Waltham, Mass., USA. Cell-Titer Glo® was purchased from Promega Corporation, Madison, Wis., USA. SpectraMax M5 plate reader was purchased from Molecular Devices LLC, Sunnyvale, Calif., USA.
Z-138 suspension cells were maintained in growth medium (RPMI 1640 supplemented with 10% v/v heat inactivated fetal bovine serum and cultured at 37° C. under 5% CO2 Under assay conditions, cells were incubated in assay medium (RPMI 1640 supplemented with 10% v/v heat inactivated fetal bovine serum and 100 units/mL penicillin-streptomycin) at 37° C. under 5% CO2.
For the assessment of the effect of compounds on the proliferation of the Z-138 cell line, exponentially growing cells were plated in 384-well white opaque plates at a density of 10,000 cells/ml in a final volume of 50 μl of assay medium. A compound source plate was prepared by performing triplicate nine-point 3-fold serial dilutions in DMSO, beginning at 10 mM (final top concentration of compound in the assay was 20 μM and the DMSO was 0.2%). A 100 nL aliquot from the compound stock plate was added to its respective well in the cell plate. […] After addition of compounds, assay plates were incubated for 5 days at 37° C., 5% CO2, relative humidity>90%.
Cell viability was measured by quantitation of ATP present in the cell cultures, adding 35 μl of Cell Titer Glo® reagent to the cell plates. Luminescence was read in the SpectraMax M5 microplate reader. The concentration of compound inhibiting cell viability by 50% was determined using a 4-parametric fit of the normalized dose response curves.
(Cellular ATP, detected with luciferase, serves as a proxy for viable cell number.)

Assay [2] deals with Symmetric di-Methyl Arginine in Z-138 cells. In words: Z-138 Methylation Assay (In Cell Western for symmetric di-methyl arginine and DNA content). Format: cell-based. The settings on record: Homo sapiens, read-out: ICW EC50. An excerpt: Z-138 suspension cells were purchased from ATCC (American Type Culture Collection, Manassas, Va.). RPMI/Glutamax medium, penicillin-streptomycin, heat inactivated fetal bovine serum, and D-PBS were purchased from Life Technologies, Grand Island, N.Y., USA. Odyssey blocking buffer, 800CW goat anti-rabbit IgG (H+L) antibody, and Licor Odyssey infrared scanner were purchased from Licor Biosciences, Lincoln, Nebr., USA. Symmetric di-methyl arginine antibody was purchased from EMD Millipore, Billerica, Mass., USA. 16% Paraformaldehyde was purchased from Electron Microscopy Sciences, Hatfield, Pa., USA.
Z-138 suspension cells were maintained in growth medium (RPMI 1640 supplemented with 10% v/v heat inactivated fetal bovine serum and 100 units/mL penicillin-streptomycin) and cultured at 37° C. under 5% CO2 […]
Calculations: First, the ratio for each well was determined by:
Each plate included fourteen control wells of DMSO only treatment (minimum inhibition) as well as fourteen control wells for maximum inhibition treated with 3 μM of a reference compound (Background wells). The average of the ratio values for each control type was calculated and used to determine the percent inhibition for each test well in the plate. […] Percent inhibition was determined and IC50 curves were generated using triplicate wells per concentration of compound.

Broadly, the EC50 is the concentration at which the effect is half-maximal.

As for `OC(COc1cccc(-c2ccc3ncsc3c2)c1)CN1CCc2ccccc2C1` (centres unmarked) [Compound 123, 1-(3-(benzo[d]thiazol-6-yl)phenoxy)-3-(3,4-dihydroisoquinolin-2(1H)-yl)propan-2-ol], the EC50 lay in the range of 10 to 40 µM in assay [1] and 1 to 10 µM in assay [2].
